Data published in patent US5081121A, “4(1H)-quinolone derivatives” (priority 1988, dated 1992).

Experiments:
[1] = test system: left atrial muscle; test: Test Method 1: enhancement of contracting force of left atrial muscle extirpated from a guinea pig (electrically stimulated at 1 Hz); format: cell-based; details: Cavia porcellus, Krebs-Henseleit solution 32° C.; for EC20: read-out: EC20 (molar concentration for enhancing the left atrial muscle contracting force to the level of 20%); for EC50: read-out: EC50 (molar concentration for enhancing the left atrial muscle contracting force to the level of 50%); for EC100: read-out: EC100 (molar concentration for enhancing the left atrial muscle contracting force to the level of 100%)
Description: (§1) The drug according to the present invention was evaluated with reference to the physiological activities by means of a method using an atrial muscle extirpated from a guinea pig.
(§2) Male guinea pigs having a body weight of 300-500 g were made swooned by striking his head and were bleeded to death. The heart was extirpated and the right and left atrial muscles were cut off. The tops of each atrial muscle were fixed with cerrefines. The muscle was suspended into an organ-bath in which a Krebs-Henseleit solution (at 32° C.) was filled, and a 95% O2 -5% CO2 gas was flown through the bath. The left atrial muscle was stimulated electrically at a frequency of 1 Hz to stabilize the contracting force of the left atrial muscle. Then, the compounds according to the present invention represented by the general formulae were added to the organ-bath. As for the right atrial muscle, after the pulsation was stabilized, the compounds according to the present invention were added in the organ-bath in the same manner as described above.
(§3) The compounds according to the present invention represented by the aforementioned general formulae enhanced the left atrial muscle contracting force dependent on their concentrations. The drug concentrations for enhancing the left atrial muscle contracting force to the levels of 20%, 50% and 100%, respectively are listed in Table 2. EC20, EC50 and EC100 indicate the molar concentration for enhancing the left atrial muscle contracting force to the levels of 20%, 50% and 100%, respectively. The enhancing rates of the pulsation of the right atrial muscle are also listed within parentheses. The minus values in parentheses indicate that the pulsation of the right atrial muscle is decreased.
(§4) As a control drug, theophylline ([…].

[2] = test system: right atrial muscle; test: Test Method 1: enhancing rate of the pulsation of the right atrial muscle extirpated from a guinea pig; format: cell-based; details: minus values: pulsation is decreased
Description: as §1, §2, §3, §4

Structure (SMILES) | EC20 [1] [µM] | EC50 [1] [µM] | EC100 [1] [µM] | enhancing rate of the pulsation of the right atrial muscle (in parentheses under EC20) [2] [%] | enhancing rate of the pulsation of the right atrial muscle (in parentheses under EC100) [2] [%] | enhancing rate of the pulsation of the right atrial muscle (in parentheses under EC50) [2] [%]
COc1ccc2[nH]ccc(=O)c2c1O [Compound 1, 5-hydroxy-6-methoxy-4(1H)-quinolone] | 199 | 398 | 708 | 1.2 | 6.8 | 3.6
O=C(c1ccccc1)c1cc(Cl)cc2c(=O)cc[nH]c12 [Compound 18, 8-benzoyl-6-chloro-4(1H)-quinolone] | 10 | 39.3 | 115 | 0.2 | 12.2 | 9.2
CCOC(=O)c1cn(CC)c2ccc(C)cc2c1=O [Compound 33, 3-ethoxycarbonyl-1-ethyl-6-methyl-4(1H)-quinolone] | 30 | 76.7 | 513 | 1.5 | -7.1 | 1.7
CCOC(=O)c1cn(CC)c2cc(OCC)c(OC)cc2c1=O [Compound 34, 7-ethoxy-3-ethoxycarbonyl-1-ethyl-6-methoxy-4(1H)-quinolone] | 6.46 | 100 |  | -3.2 |  | -8.5
COc1ccc(-c2ccccc2)c2c(=O)c(C(=O)O)c[nH]c12 [Compound 91, 3-carboxyl-8-methoxy-5-phenyl-4(1H)-quinolone] | 13.3 | 119 | 750 | 2.3 |  | 16.0
COc1ccc(Cn2c(C3CC3)cc(=O)c3cc(OC)c(OC)cc32)cc1 [Compound 104, 2-cyclopropyl-6,7-dimethoxy-1-(4-methoxybenzyl)-4(1H)-quinolone] | 11.5 | 51.9 |  | -3.5 |  | -0.5
CCOC(=O)c1c[nH]c2c(OC)ccc(C)c2c1=O [Compound 36, 3-ethoxycarbonyl-8-methoxy-5-methyl-4(1H)-quinolone] | 3.54 | 25.7 | 77.6 | 0.0 | 8.9 | 3.6
CCn1c(-c2cccs2)cc(=O)c2ccccc21 [Compound 97, 1-ethyl-2-(2-thienyl)-4(1H)-quinolone] | 4.52 | 50.7 |  | -1.0 |  | -3.0
CCOC(=O)c1cn(CC)c2c(OC)cc([S+](C)[O-])cc2c1=O (stereo not shown) [Compound 39, 3-ethoxycarbonyl-1-ethyl-8-methoxy-6-methylsulfinyl-4(1H)-quinolone] | 13.5 | 67.6 |  | -7.7 |  | -12.1
C=CCn1c(C2CC2)cc(=O)c2cc(OC)c(OCC)cc21 [Compound 103, 1-allyl-2-cyclopropyl-7-ethoxy-6-methoxy-4(1H)-quinolone] | 3 | 34.3 | 162 | -2.0 | 1.2 | 0.5
CCOc1cc2c(cc1OC)c(=O)cc(-c1ccco1)n2CC [Compound 101, 7-ethoxy-1-ethyl-2-(2-furyl)-6-methoxy-4(1H)-quinolone] | 1.68 | 19.5 | 89.1 | -1.0 | 0.0 | -2.8
CCOC(=O)c1cn(CC)c2c(OC)cc(S(C)(=O)=O)cc2c1=O [Compound 40, 3-ethoxycarbonyl-1-ethyl-8-methoxy-6-methylsulfonyl-4(1H)-quinolone] | 4.57 | 36.3 |  | -4.5 |  | -16.0
COc1cc(OCc2ccccc2)cc2c(=O)cc[nH]c12 [Compound 26, 6-benzyloxy-8-methoxy-4(1H)-quinolone] | 6.38 | 63 | 305 | 0.1 | 8.7 | 5.5
CCOC(=O)c1c[nH]c2c(OCOC)ccc(OC)c2c1=O [Compound 5, 3-ethoxycarbonyl-5-methoxy-8-methoxymethoxy-4(1H)-quinolone] | 741 |  |  | 0.2 |  | 
COC(=O)c1cn(C)c2cc(OC)c(OC)cc2c1=O [Compound 32, 6,7-dimethoxy-3-methoxycarbonyl-1-methyl-4(1H)-quinolone] | 40.7 | 85.1 | 282 | 0.1 | 0.4 | 0.3
CCCCOc1cc2c(cc1OC)c(=O)cc(-c1ccco1)n2CC [Compound 118, 7-n-butoxy-1-ethyl-2-(2-furyl)-6-methoxy-4(1H)-quinolone] | 10 | 49 |  | -5.0 |  | -21.2
CCn1ccc(=O)c2cc(C)ccc21 [Compound 59, 1-ethyl-6-methyl-4(1H)-quinolone] | 12.3 | 68.4 | 279 | -2.0 | -3.0 | -2.7
CCOc1cc2c(cc1OC)c(=O)ccn2CC [Compound 58, 7-ethoxy-1-ethyl-6-methoxy-4(1H)-quinolone] | 8.13 | 47.3 |  | 3.0 |  | 13.5
CCn1ccc(=O)c2cc(/C=C/c3cc(OC)ccc3OC)ccc21 [Compound 111, 6-[2-trans-(2,5-dimethoxyphenyl)vinyl]-1-ethyl-4(1H)-quinolone] | 18.2 | 97.7 |  | -9.8 |  | -27.0
CCOc1cc2c(=O)ccn(CC)c2cc1OC [Compound 49, 6-ethoxy-1-ethyl-7-methoxy-4(1H)-quinolone] | 16.8 | 62.4 | 229 | -2.5 | 10.2 | -1.0
CCOC(=O)c1cn(CC)c2c(OCC)cc(OC)cc2c1=O [Compound 78, 8-ethoxy-3-ethoxycarbonyl-1-ethyl-6-methoxy-4(1H)-quinolone] | 8.41 | 75 |  | -6.2 |  | -25.0
CCOc1cc2c(cc1OC)c(=O)c(C(=O)O)cn2C [Compound 92, 3-carboxyl-7-ethoxy-6-methoxy-1-methyl-4(1H)-quinolone] | 4.73 | 37.6 |  | 1.0 |  | 6.0
COc1c(O)ccc2[nH]ccc(=O)c12 [Compound 2, 6-hydroxy-5-methoxy-4(1H)-quinolone] | 490 | 871 |  | 0.6 |  | 2.2
COc1ccc2c(=O)cc[nH]c2c1O [Compound 3, 8-hydroxy-7-methoxy-4(1H)-quinolone] | 708 | 977 |  | 0.8 |  | 2.0
